Test results taken from DBAASP.
Values after ≈ are worked out from the molar mass of the structure shown.

Assays:
Assay in all cases: ≥ marks a high value that may be exact or a test limit, other limits are often not marked, values filed in µg/mL are converted to µM
[1] = system: Staphylococcus epidermidis KCTC 3096
[2] = system: Saccharomyces cerevisiae KCTC 7296
[3] = system: Salmonella typhimurium KCTC 1926
[4] = system: Bacillus subtilis KCTC 1918
[5] = system: Candida albicans TIMM 1768
[6] = system: Pseudomonas aeruginosa KCTC 1637
[7] = system: Trichosporon beigelii KCTC 7707
[8] = system: Serratia marcescens ATCC 8100
[9] = system: Staphylococcus aureus ATCC 25923
Escherichia coli ML-35 = system: Escherichia coli ML-35
[10] = system: Escherichia coli ATCC 25922
[11] = system: Salmonella enterica subsp. enterica serovar Typhimurium ATCC 14028
[12] = system: Staphylococcus aureus ATCC 9144
[13] = system: Pseudomonas aeruginosa ATCC 27853
Escherichia coli HB101 = system: Escherichia coli HB101
[14] = system: Corynebacterium glutamicum ATCC 13032
[15] = system: Salmonella enterica subsp. enterica serovar Typhi DMST 22842
[16] = system: Staphylococcus epidermidis ATCC 12228
Vibrio cholerae non-O139 = system: Vibrio cholerae non-O139
Escherichia coli O157:H7 = system: Escherichia coli O157:H7
Vibrio cholerae non-O1 = system: Vibrio cholerae non-O1
[17] = system: Streptococcus pyogenes ATCC 21547
[18] = system: Schizosaccharomyces pombe
Escherichia coli D21 = system: Escherichia coli D21
[19] = system: Pseudomonas aeruginosa ATCC 15692
[20] = system: Pseudomonas syringae pv. tabaci 1918NCPPB
[21] = system: Yersinia pseudotuberculosis YPIII
[22] = system: Staphylococcus aureus Cowan 1
[23] = system: Candida albicans ATCC 10231
[24] = system: Enterococcus faecalis ATCC 29212
[25] = system: Acinetobacter baumannii ATCC 19606
Saccharomyces cerevisiae = system: Saccharomyces cerevisiae
Staphylococcus capitis 1 = system: Staphylococcus capitis 1
Acinetobacter junii RT-4 = system: Acinetobacter junii RT-4
Bacillus megaterium Bm11 = system: Bacillus megaterium Bm11

CC(C)C[C@H](NC(=O)[C@H](CCCCN)NC(=O)[C@H](CC(C)C)NC(=O)[C@H](CCCCN)NC(=O)[C@H](CC(C)C)NC(=O)[C@@H]1CCCN1C(=O)[C@H](CCCCN)NC(=O)[C@H](CCCCN)NC(=O)[C@H](CC(C)C)NC(=O)[C@H](CC(C)C)NC(=O)[C@H](CCCCN)NC(=O)[C@H](CCCCN)NC(=O)[C@H](Cc1c[nH]c2ccccc12)NC(=O)[C@@H](N)CCCCN)C(N)=O [KWKKLLKKPLKLKL]
MIC [1]: 3.1 µM (≈ 5.47 µg/mL) | MIC [2]: 12.5 µM (≈ 22 µg/mL) | MIC [3]: 0.2 µM (≈ 0.353 µg/mL) | MIC [4]: 3.1 µM (≈ 5.47 µg/mL) | MIC [5]: 12.5 µM (≈ 22 µg/mL) | MIC [6]: 3.1 µM (≈ 5.47 µg/mL) | MIC [7]: 3.1 µM (≈ 5.47 µg/mL)

CC[C@H](C)[C@H](NC(=O)[C@@H]1CCCN1C(=O)[C@H](CCCN=C(N)N)NC(=O)[C@@H]1CCCN1C(=O)CNC(=O)[C@@H]1CCCN1C(=O)[C@H](CCCN=C(N)N)NC(=O)[C@@H]1CCCN1C(=O)[C@H](Cc1ccccc1)NC(=O)[C@@H]1CCCN1C(=O)[C@H](CC(C)C)NC(=O)[C@@H]1CCCN1C(=O)[C@H](CCCN=C(N)N)NC(=O)[C@@H]1CCCN1C(=O)[C@@H](NC(=O)[C@@H]1CCCN1C(=O)[C@H](CCCN=C(N)N)NC(=O)[C@@H]1CCCN1C(=O)CNC(=O)[C@@H]1CCCN1C(=O)[C@H](CCCN=C(N)N)NC(=O)[C@@H]1CCCN1C(=O)[C@H](Cc1ccccc1)NC(=O)[C@@H]1CCCN1C(=O)[C@H](CC(C)C)NC(=O)[C@@H]1CCCN1C(=O)[C@H](CCCN=C(N)N)NC(=O)[C@@H]1CCCN1)[C@@H](C)CC)C(=O)O [PRPLPFPRPGPRPIPRPLPFPRPGPRPI]
MIC [8]: ≥ 128 µM | MIC [9]: > 128 µM | MIC (Escherichia coli ML-35): ≥ 128 µM | MIC [10]: > 128 µM | MIC [11]: > 128 µM

CC[C@H](C)[C@H](NC(=O)[C@H](CCCN=C(N)N)NC(=O)[C@@H]1CCCN1C(=O)[C@@H]1CCCN1C(=O)[C@H](CC(C)C)NC(=O)[C@H](CCCN=C(N)N)NC(=O)[C@@H]1CCCN1C(=O)[C@@H]1CCCN1C(=O)[C@H](Cc1ccccc1)NC(=O)[C@H](Cc1ccccc1)NC(=O)[C@@H]1CCCN1C(=O)[C@@H]1CCCN1C(=O)[C@@H]1CCCN1C(=O)[C@H](CCCN=C(N)N)NC(=O)[C@@H]1CCCN1C(=O)[C@H](CCCN=C(N)N)NC(=O)[C@@H]1CCCN1C(=O)[C@H](CC(C)C)NC(=O)[C@H](Cc1ccc(O)cc1)NC(=O)[C@@H]1CCCN1C(=O)[C@@H]1CCCN1C(=O)[C@H](CCCN=C(N)N)NC(=O)[C@@H]1CCCN1C(=O)[C@H](CCCN=C(N)N)NC(=O)[C@H](CCCN=C(N)N)NC(=O)[C@@H](N)CCCN=C(N)N)C(=O)O [RRRPRPPYLPRPRPPPFFPPRLPPRI]
MIC [12]: ≥ 50 µM | MIC [13]: 4.42 µM (≈ 14.3 µg/mL) | MIC (Escherichia coli HB101): 1.13 µM (≈ 3.65 µg/mL) | MIC [14]: 0.4 µM (≈ 1.29 µg/mL) | MIC [10]: 1.13 µM (≈ 3.65 µg/mL)

CC[C@H](C)[C@H](NC(=O)[C@H](CCCN=C(N)N)NC(=O)[C@@H](N)CCCN=C(N)N)C(=O)N[C@@H](CCCN=C(N)N)C(=O)N1CCC[C@H]1C(=O)N[C@@H](CCCN=C(N)N)C(=O)N1CCC[C@H]1C(=O)N1CCC[C@H]1C(=O)N[C@@H](CCCN=C(N)N)C(=O)N[C@@H](CC(C)C)C(=O)N1CCC[C@H]1C(=O)N[C@@H](CCCN=C(N)N)C(=O)N1CCC[C@H]1C(=O)O [RRIRPRPPRLPRP]
MIC (Escherichia coli HB101): ≥ 90.5 µM | MIC [8]: ≥ 128 µM | MIC [9]: > 128 µM | MIC (Escherichia coli ML-35): ≥ 128 µM | MIC [10]: > 128 µM | MIC [11]: > 128 µM

CC(C)C[C@H](NC(=O)[C@H](CCCCN)NC(=O)[C@H](CCCCN)NC(=O)[C@H](CC(C)C)NC(=O)[C@H](CC(C)C)NC(=O)[C@H](CCCCN)NC(=O)[C@H](CCCCN)NC(=O)[C@H](CC(C)C)NC(=O)[C@H](CC(C)C)NC(=O)[C@@H]1CCCN1C(=O)[C@H](CCCCN)NC(=O)[C@H](CC(C)C)NC(=O)[C@H](CCCCN)NC(=O)[C@H](Cc1c[nH]c2ccccc12)NC(=O)[C@@H](N)CCCCN)C(N)=O [KWKLKPLLKKLLKKL]
MIC [1]: 1.6 µM (≈ 3 µg/mL) | MIC [2]: 12.5 µM (≈ 23.5 µg/mL) | MIC [3]: 0.2 µM (≈ 0.375 µg/mL) | MIC [4]: 3.1 µM (≈ 5.82 µg/mL) | MIC [5]: 12.5 µM (≈ 23.5 µg/mL) | MIC [6]: 3.1 µM (≈ 5.82 µg/mL) | MIC [7]: 1.6 µM (≈ 3 µg/mL)

CC(C)[C@H](NC(=O)CNC(=O)[C@@H](N)CC(N)=O)C(=O)N[C@@H](CCC(N)=O)C(=O)N1CCC[C@H]1C(=O)N[C@@H](CCCCN)C(=O)N[C@@H](Cc1ccc(O)cc1)C(=O)N[C@@H](CCCCN)C(=O)N[C@@H](Cc1c[nH]c2ccccc12)C(=O)N[C@@H](Cc1c[nH]c2ccccc12)C(=O)N[C@@H](CCCCN)C(=O)N[C@@H](Cc1c[nH]c2ccccc12)C(=O)N[C@@H](Cc1c[nH]c2ccccc12)C(=O)N[C@@H](CCCCN)C(=O)N[C@@H](CCCCN)C(=O)N[C@@H](Cc1c[nH]c2ccccc12)C(=O)N[C@@H](Cc1c[nH]c2ccccc12)C(N)=O [NGVQPKYKWWKWWKKWW]
MIC [15]: 9.45 µM (≈ 23 µg/mL) | MIC [13]: 37.4 µM (≈ 91 µg/mL) | MIC [16]: 9.45 µM (≈ 23 µg/mL) | MIC (Vibrio cholerae non-O139): 4.52 µM (≈ 11 µg/mL) | MIC [9]: 18.9 µM (≈ 46 µg/mL) | MIC (Escherichia coli O157:H7): 4.52 µM (≈ 11 µg/mL) | MIC [10]: 4.52 µM (≈ 11 µg/mL) | MIC (Vibrio cholerae non-O1): 4.52 µM (≈ 11 µg/mL)

CC[C@H](C)[C@H](NC(=O)[C@H](CCCN=C(N)N)NC(=O)CNC(=O)[C@H](CC(C)C)NC(=O)[C@H](Cc1ccccc1)NC(=O)[C@H](CCCN=C(N)N)NC(=O)[C@H](CO)NC(=O)[C@H](Cc1ccccc1)NC(=O)[C@H](Cc1c[nH]c2ccccc12)NC(=O)[C@H](CCCN=C(N)N)NC(=O)[C@@H](NC(=O)[C@@H](N)Cc1ccccc1)C(C)C)C(=O)N[C@@H](CC(C)C)C(N)=O [FVRWFSRFLGRIL]
MIC [17]: 3 µM (≈ 5.09 µg/mL) | MIC [18]: 12 µM (≈ 20.4 µg/mL) | MIC (Escherichia coli D21): 24 µM (≈ 40.7 µg/mL) | MIC [19]: 24 µM (≈ 40.7 µg/mL) | MIC [20]: 6 µM (≈ 10.2 µg/mL) | MIC [21]: 6 µM (≈ 10.2 µg/mL) | MIC [13]: 24 µM (≈ 40.7 µg/mL) | MIC [16]: 6 µM (≈ 10.2 µg/mL) | MIC [22]: 6 µM (≈ 10.2 µg/mL) | MIC [9]: 6 µM (≈ 10.2 µg/mL) | MIC [23]: 24 µM (≈ 40.7 µg/mL) | MIC [24]: 24 µM (≈ 40.7 µg/mL) | MIC [25]: 6 µM (≈ 10.2 µg/mL) | MIC (Saccharomyces cerevisiae): 24 µM (≈ 40.7 µg/mL) | MIC (Staphylococcus capitis 1): 6 µM (≈ 10.2 µg/mL) | MIC (Acinetobacter junii RT-4): 12 µM (≈ 20.4 µg/mL) | MIC [10]: 48 µM (≈ 81.4 µg/mL) | MIC (Bacillus megaterium Bm11): 3 µM (≈ 5.09 µg/mL)

CC[C@H](C)[C@H](NC(=O)[C@H](CCCN=C(N)N)NC(=O)CNC(=O)[C@H](CC(C)C)NC(=O)[C@H](Cc1ccccc1)NC(=O)[C@H](CCCN=C(N)N)NC(=O)[C@H](CO)NC(=O)[C@H](Cc1ccccc1)NC(=O)[C@H](Cc1c[nH]c2ccccc12)NC(=O)[C@H](CCC(N)=O)NC(=O)[C@@H](NC(=O)[C@@H](N)Cc1ccccc1)C(C)C)C(=O)N[C@@H](CC(C)C)C(N)=O [FVQWFSRFLGRIL]
MIC [17]: 6 µM (≈ 10 µg/mL) | MIC [18]: 6 µM (≈ 10 µg/mL) | MIC (Escherichia coli D21): ≥ 48 µM | MIC [19]: 24 µM (≈ 40 µg/mL) | MIC [20]: 12 µM (≈ 20 µg/mL) | MIC [21]: 6 µM (≈ 10 µg/mL) | MIC [13]: 48 µM (≈ 80.1 µg/mL) | MIC [16]: 6 µM (≈ 10 µg/mL) | MIC [22]: 6 µM (≈ 10 µg/mL) | MIC [9]: 6 µM (≈ 10 µg/mL) | MIC [23]: 12 µM (≈ 20 µg/mL) | MIC [24]: 12 µM (≈ 20 µg/mL) | MIC [25]: 6 µM (≈ 10 µg/mL) | MIC (Saccharomyces cerevisiae): 12 µM (≈ 20 µg/mL) | MIC (Staphylococcus capitis 1): 6 µM (≈ 10 µg/mL) | MIC (Acinetobacter junii RT-4): 6 µM (≈ 10 µg/mL) | MIC [10]: 12 µM (≈ 20 µg/mL) | MIC (Bacillus megaterium Bm11): 6 µM (≈ 10 µg/mL)
